Experimental data reported in ChEMBL document CHEMBL1201862, “PubChem BioAssay data set” (2004).
Activity calls are given as the source filed them.

Key:
cells = format: functional
[1] = molecular target: T1, Polyadenylate-binding protein 1 (Homo sapiens, UniProt P11940); assay: MLLE binding blockers, Cy5 peptide tracer – biochemical, fluorescence polarization, Cy5-PAM2 peptide, secondary, miRNA deadenylation inhibitor project, dose response (AID 602260); format: functional; settings: read-out: IC50_Mean
[2] = molecular target: T1, Polyadenylate-binding protein 1; assay: MLLE domain peptide-binding blockers, IC50 – biochemical, fluorescence polarization, FITC-PAM2 peptide, dose response (AID 602259); format: functional; settings: read-out: IC50_Mean
[3] = molecular target: T2, Replicative DNA helicase DnaB (Mycobacterium tuberculosis, UniProt P9WMR3); assay: DnaB intein splicing inhibitors, dose response, biochemical, cell-free fluorescence (AID 449749); format: functional
T2 sequence (P9WMR3 whole entry): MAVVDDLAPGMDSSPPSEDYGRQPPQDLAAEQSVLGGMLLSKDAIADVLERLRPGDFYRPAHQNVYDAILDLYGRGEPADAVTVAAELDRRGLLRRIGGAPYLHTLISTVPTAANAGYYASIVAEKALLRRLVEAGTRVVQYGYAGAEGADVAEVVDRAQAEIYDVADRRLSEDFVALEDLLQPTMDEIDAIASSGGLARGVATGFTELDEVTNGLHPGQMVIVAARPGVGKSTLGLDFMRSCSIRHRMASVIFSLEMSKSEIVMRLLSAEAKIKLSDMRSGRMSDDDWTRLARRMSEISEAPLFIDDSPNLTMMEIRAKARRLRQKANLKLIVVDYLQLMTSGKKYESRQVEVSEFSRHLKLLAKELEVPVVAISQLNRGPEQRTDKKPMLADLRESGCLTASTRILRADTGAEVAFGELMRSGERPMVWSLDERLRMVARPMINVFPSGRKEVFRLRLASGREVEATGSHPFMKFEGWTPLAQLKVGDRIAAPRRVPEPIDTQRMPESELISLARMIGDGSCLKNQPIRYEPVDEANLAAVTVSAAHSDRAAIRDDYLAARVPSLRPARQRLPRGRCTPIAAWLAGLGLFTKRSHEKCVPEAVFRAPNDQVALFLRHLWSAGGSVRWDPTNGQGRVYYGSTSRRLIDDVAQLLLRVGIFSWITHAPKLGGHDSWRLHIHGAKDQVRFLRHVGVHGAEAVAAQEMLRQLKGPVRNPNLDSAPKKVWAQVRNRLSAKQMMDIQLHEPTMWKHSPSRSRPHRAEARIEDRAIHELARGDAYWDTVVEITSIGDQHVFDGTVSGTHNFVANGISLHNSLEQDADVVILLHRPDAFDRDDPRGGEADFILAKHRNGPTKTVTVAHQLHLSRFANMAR

[4] = molecular target: T3, High affinity choline transporter 1 (Homo sapiens, UniProt Q9GZV3); assay: human choline transporter blockers, potency – cell-based, 5-point CRC, membrane potential dye, dose response (AID 504840); format: functional
T3 sequence (Q9GZV3 whole entry): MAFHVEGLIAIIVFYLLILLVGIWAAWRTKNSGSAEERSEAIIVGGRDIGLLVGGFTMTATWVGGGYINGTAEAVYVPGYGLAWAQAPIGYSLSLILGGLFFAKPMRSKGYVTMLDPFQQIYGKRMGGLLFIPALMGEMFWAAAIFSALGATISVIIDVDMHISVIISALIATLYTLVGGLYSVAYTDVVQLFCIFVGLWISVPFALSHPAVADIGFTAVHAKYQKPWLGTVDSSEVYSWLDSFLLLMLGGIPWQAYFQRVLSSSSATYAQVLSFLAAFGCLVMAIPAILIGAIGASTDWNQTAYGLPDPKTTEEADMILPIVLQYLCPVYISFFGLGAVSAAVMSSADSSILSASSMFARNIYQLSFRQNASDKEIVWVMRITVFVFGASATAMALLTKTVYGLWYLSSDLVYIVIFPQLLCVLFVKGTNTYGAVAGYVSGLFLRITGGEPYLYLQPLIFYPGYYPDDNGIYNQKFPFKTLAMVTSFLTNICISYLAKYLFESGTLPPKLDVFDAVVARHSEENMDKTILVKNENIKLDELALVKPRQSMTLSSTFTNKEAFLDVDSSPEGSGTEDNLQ

[5] = molecular target: FAD-linked sulfhydryl oxidase ALR (Homo sapiens, UniProt P55789); assay: ALR-catalysed DTT oxidation blockers – biochemical, H2O2 detection, luminescence, cherry-pick, dose response (AID 493248)
Protein RecA = molecular target: T4, Protein RecA (Mycobacterium tuberculosis, UniProt P9WHJ3); assay: Fluorescence Cell-Free Homogeneous Dose Retest to Identify Inhibitors of RecA-Intein Splicing Activity. [Related pubchem assays (depositor defined):AID2097, AID2223, AID489010, AID492950]; format: functional
T4 sequence (P9WHJ3 whole entry): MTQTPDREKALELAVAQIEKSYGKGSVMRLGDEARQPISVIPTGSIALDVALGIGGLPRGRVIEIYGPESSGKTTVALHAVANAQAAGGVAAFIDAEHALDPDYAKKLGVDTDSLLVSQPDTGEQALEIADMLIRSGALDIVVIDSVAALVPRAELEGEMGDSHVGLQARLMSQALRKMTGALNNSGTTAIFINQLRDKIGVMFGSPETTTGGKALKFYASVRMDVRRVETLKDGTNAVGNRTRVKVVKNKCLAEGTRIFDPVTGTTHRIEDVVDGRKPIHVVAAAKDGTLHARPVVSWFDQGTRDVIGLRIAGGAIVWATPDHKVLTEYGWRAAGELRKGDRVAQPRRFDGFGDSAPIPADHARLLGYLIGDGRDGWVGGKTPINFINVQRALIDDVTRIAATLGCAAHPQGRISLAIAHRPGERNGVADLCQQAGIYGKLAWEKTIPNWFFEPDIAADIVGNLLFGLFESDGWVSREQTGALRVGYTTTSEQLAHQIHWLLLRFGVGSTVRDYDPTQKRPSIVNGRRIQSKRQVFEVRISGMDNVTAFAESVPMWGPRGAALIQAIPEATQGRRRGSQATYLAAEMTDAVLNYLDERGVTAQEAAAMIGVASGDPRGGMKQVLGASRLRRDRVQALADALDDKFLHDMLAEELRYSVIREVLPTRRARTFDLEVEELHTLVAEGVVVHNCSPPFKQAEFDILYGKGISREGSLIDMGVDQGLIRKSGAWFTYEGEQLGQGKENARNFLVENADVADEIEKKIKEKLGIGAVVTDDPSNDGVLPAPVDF

Large T antigen = Large T antigen (Simian virus 40, UniProt P03070); format: functional, Betapolyomavirus macacae;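 also: Confirmatory-stage PubChem screen for compounds that inhibit SV40 T antigen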
[6] = loss of viability in HepG2 cells – cell-based, CellTiter-Glo, cherry-picked, cytotoxicity control for Shn3 inhibitor project, dose response (AID 624134); format: functional
[7] = reduction of Shn3 3'UTR-driven luciferase in osteoblasts – cell-based, Clone20 osteoblasts, firefly luciferase, cherry-picked, dose response (AID 624132); format: functional;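 also: firefly luciferase luminescence from reporter carrying the Shn3 3'UTR in osteoblasts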
[8] = HIV-1 AD8 envelope cell-cell fusion blockers – cherry-pick, dose response (AID 652062); format: functional, cell-based;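 also: luciferase signal from cell-cell fusion driven by HIV-1 clade B AD8 Env; potency is for inhibitors of fusion seen as a drop in luminescence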
[9] = blockers of HIV-1 ZM109 envelope-driven cell-cell fusion – HeLa effector, CEM target cells, luciferase, cherry-pick, dose response (AID 652058); format: functional, cell-based;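 also: luciferase signal from HIV-1 Env mediated cell-cell fusion of effector and target cells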
[10] = non-specific 3'UTR reporter inhibition in Clone20-Shn3RL – cell-based, Renilla luciferase, cherry-picked, counter-screen for Shn3 inhibitor project, dose response (AID 624133); format: functional
BJ [11] = assay: cells; format: functional, cell-based; settings: Homo sapiens
INS1 = assay: INS-1E survival protection against cytokine death – cell-based, luminescence, retest, dose response (AID 449756); format: functional; settings: Rattus norvegicus;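 also: cell death triggered by IL-1 beta plus TNF-alpha plus IFN-gamma mixture; protective hits raise ATP signal compared with cytokine alone wells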
BJ [12] = assay: BJ-TERT fibroblast viability loss – cell-based, RAS-independent, luminescence, dose response (AID 1933); format: functional; settings: Homo sapiens
BJ [13] = assay: BJ-TERT-LT-ST fibroblast viability loss – cell-based, RAS-independent, luminescence, dose response (AID 1935); format: functional; settings: Homo sapiens;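 also: BJ fibroblasts immortalized with TERT plus LT and ST oncogenes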
[14] = DRD fibroblast viability loss – cell-based, non-viral oncogenic, luminescence, dose response (AID 1934); format: functional; settings: Homo sapiens

T1 sequence (P11940 whole entry, the tested form may be a part): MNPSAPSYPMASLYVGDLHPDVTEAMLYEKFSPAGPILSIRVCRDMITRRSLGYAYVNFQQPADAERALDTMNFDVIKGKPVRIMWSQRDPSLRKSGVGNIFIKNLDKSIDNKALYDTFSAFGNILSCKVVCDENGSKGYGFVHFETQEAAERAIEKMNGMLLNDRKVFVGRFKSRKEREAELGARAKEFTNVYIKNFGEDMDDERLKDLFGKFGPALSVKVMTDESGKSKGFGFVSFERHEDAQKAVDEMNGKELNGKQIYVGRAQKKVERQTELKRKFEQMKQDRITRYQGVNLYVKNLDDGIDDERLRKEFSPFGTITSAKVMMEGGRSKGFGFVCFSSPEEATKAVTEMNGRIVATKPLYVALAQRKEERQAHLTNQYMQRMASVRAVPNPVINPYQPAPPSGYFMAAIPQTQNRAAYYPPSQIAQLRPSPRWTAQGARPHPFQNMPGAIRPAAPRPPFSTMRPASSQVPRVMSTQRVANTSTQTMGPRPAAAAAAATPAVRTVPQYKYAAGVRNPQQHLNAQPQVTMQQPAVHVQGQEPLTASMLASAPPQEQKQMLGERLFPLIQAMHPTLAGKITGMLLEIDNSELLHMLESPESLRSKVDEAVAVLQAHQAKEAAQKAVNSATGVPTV
Chain of Large T antigen (P03070 whole entry): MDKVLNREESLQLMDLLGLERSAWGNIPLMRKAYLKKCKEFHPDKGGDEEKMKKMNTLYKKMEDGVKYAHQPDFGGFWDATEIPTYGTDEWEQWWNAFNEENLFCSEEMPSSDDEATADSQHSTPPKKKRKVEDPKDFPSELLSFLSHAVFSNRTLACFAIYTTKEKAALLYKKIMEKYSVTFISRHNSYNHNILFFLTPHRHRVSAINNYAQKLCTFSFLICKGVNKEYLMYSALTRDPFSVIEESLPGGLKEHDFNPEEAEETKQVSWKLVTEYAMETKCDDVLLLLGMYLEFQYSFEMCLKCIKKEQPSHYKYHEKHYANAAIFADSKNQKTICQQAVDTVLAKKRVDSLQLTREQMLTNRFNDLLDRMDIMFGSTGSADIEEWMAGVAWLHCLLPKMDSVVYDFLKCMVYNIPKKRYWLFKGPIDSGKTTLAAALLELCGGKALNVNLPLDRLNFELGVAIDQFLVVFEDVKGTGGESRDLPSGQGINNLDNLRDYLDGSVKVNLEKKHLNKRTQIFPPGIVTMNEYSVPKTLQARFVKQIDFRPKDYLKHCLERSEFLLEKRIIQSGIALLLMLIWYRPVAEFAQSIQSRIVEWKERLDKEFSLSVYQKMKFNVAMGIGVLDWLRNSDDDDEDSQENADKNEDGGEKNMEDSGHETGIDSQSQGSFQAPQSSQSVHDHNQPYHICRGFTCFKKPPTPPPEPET
Chain of FAD-linked sulfhydryl oxidase ALR (P55789 whole entry): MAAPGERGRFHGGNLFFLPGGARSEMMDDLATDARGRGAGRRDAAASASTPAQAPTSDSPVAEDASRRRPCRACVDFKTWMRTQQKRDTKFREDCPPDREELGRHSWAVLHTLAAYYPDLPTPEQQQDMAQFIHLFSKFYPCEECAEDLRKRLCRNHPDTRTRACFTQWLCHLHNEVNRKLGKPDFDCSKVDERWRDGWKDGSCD

For `CS(=O)(=O)Nc1cccc2cccnc12`, which IC50 (cells) is on record?
Its IC50 is 2.87 µM (active).

With `NS(=O)(=O)c1cccc2c1c([N+](=O)[O-])cc1nc(O)c(O)nc12` as the compound, how does the IC50 [1] read?
The IC50 was > 66 µM (inactive).

And the IC50 [2]?
The IC50 was > 66 µM (inactive).

What does the source list for `COc1cc2[nH]c(=S)n(NC(=O)c3ccccc3)c(=O)c2cc1OC`?
IC50 [1]: > 66 µM (inactive); IC50 [2]: > 66 µM (inactive)

For `Cc1nnc(Sc2nc3ccccc3o2)c2ccccc12`, which AC50 [3] is on record?
Its AC50 is 18.4 µM (active).

What about the IC50 [4] of the same compound?
The IC50 was 13.5 µM (active).

What about the AC50 [5] of the same compound?
Its AC50 is 3.26 µM (active).

What about the EC50 (Protein RecA) of the same compound?
Its EC50 is 1.28 µM (active).

Which IC50 [1] does the source give for `COc1ccc(Cc2c(O)nc(SCC(=O)NC34CC5CC(CC(C5)C3)C4)nc2O)cc1` here?
The IC50 was > 66 µM (inactive).

What about the IC50 [2] of the same compound?
Its IC50 is > 66 µM (inactive).

For `CC(C)c1ccc(C2CC(=O)N3CN(C)CSC3=C2C#N)cc1` (stereo not drawn), which IC50 (Large T antigen) is on record?
Its IC50 is 54.9 µM (active).

For `O=Cc1c(NCc2ccco2)nc2ccccn2c1=O`, which IC50 (cells) is on record?
The IC50 was 40.4 µM (active).

Which AC50 [6] does the source give for `COc1ccccc1OCC(=O)c1[nH]c(C)c(C(C)=O)c1C` here?
Its AC50 is > 70 µM (inactive).

What about the AC50 [7] of the same compound?
Its AC50 is 3.35 µM (active).

What about the AC50 [8] of the same compound?
The AC50 was 46.4 µM (active).

And the AC50 [9]?
Its AC50 is 2.13 µM (active).

And the AC50 [10]?
Its AC50 is 3.81 µM (active).

For `N#CC(C#N)=C(Nc1ccc(F)cc1)SCc1cccc(F)c1`, which EC50 (BJ [11]) is on record?
Its EC50 is 33.2 µM (active).

What about the IC50 [4] of the same compound?
The IC50 was 4.79 µM (active).

What about the AC50 (INS1) of the same compound?
The AC50 was 3.26 µM (active).

And the EC50 (BJ [12])?
The EC50 was 13.1 µM (active).

What about the EC50 (BJ [13]) of the same compound?
Its EC50 is > 150 µM (inconclusive).

What about the EC50 [14] of the same compound?
The EC50 was 29.3 µM (active).

Which results are given for `O=C1CC(c2ccccc2)CC(=O)C1Sc1ccc(Cl)cc1` (stereo not drawn)?
IC50 [1]: > 66 µM (inactive); IC50 [2]: > 66 µM (inactive)

With `Cc1ccc(S(=O)(=O)N2[C@@H](c3ccc(Cl)cc3)C(C(=O)O)=CC[C@H]2c2ccc(Cl)cc2)cc1` as the compound, how does the IC50 [4] read?
Its IC50 is 5.01 µM (active).

And the IC50 (Large T antigen)?
Its IC50 is > 100 µM (active).
